Test results published in patent US20250320206A1, “STAT6 DEGRADERS” (Gilead Sciences, Inc., priority 2024, published 2025).

Target: T1, STAT6 (Homo sapiens, UniProt P42226)
T1 construct: These cells express endogenous STAT6; host or cells: HeLa LgBiT clone 4.14
T1 sequence (P42226 1-847): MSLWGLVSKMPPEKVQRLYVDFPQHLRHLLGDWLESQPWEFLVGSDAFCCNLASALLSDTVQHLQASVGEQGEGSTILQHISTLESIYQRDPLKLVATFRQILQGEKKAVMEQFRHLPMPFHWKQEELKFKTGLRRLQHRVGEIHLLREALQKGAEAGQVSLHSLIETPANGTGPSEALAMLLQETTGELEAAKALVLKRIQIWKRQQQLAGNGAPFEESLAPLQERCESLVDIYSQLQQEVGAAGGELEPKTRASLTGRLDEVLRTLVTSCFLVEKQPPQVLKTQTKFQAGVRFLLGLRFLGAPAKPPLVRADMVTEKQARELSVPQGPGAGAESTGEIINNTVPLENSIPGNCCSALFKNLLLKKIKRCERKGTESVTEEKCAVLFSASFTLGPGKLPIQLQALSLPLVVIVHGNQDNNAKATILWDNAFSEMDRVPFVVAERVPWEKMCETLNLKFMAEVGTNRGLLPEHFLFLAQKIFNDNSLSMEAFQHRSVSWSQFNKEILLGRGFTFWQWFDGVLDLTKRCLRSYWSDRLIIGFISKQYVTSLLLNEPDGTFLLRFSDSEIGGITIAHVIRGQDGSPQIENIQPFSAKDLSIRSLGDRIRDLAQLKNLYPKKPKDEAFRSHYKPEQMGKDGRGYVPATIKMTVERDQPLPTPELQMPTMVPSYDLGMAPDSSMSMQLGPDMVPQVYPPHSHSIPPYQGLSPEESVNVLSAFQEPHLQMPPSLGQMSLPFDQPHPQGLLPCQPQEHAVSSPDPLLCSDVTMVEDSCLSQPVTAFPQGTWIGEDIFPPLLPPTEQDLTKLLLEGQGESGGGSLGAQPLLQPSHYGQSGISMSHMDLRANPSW
Assay: Stat6 Degrader Assay (HiBiT based, HeLa LgBiT clone 4.14)
Assay type: cell-based
Settings: HeLa LgBiT clone 4.14 HiBiT-STAT6, 4-24 h incubation; read-out: STAT6 degradation Emax
Procedure: This was a HiBit based assay. A HeLa cell line stably transfected with a small protein, LgBit (Large Bit) was obtained from Promega. These cells express endogenous STAT6. A small 11 amino acid gene sequence (HiBiT) was inserted in the STAT6 gene using CRISPR technology. Once STAT6 protein is expressed in the cells, the HiBiT sequence will bind the LgBit in the cells resulting in a functional NanoBiT protein, giving a luminescent tag to STAT6, see FIG. 2.
Single cell clones were prepared and the clone 4.14 was selected for the assay based on that clone showing high luminescence, high STAT6 phosphorylation upon stimulation with IL-4, and inhibition of luminescence when cells were treated with STAT6 siRNA.
HeLa LgBiT clone 4.14 cells were suspended in DMEM with 10% FCS, 1% Pen/Strep, Na-pyrovate and Hygromycin B, at a concentration of 1.25*105 cells pr mL. 5000 cells were added pr well of a 384 well plate and 20 nL of compound was added by Echo® liquid handler. NN6394A (terfenadine, a toxic compound) was added to control wells at 50 μM concentration to establish the assay window. In these wells the cells are dead which equals 100% degradation of STAT6.
After 4-24 h of incubation at 37° C. under 5% CO2/95% air, 5 μL substrate (Nano-GLO®) was added to the wells and the plates were centrifuged and incubated for 0.5 h.
The luminescence in the wells as a measure of non-degraded STAT6 was measured in a plate reader (BMG Pherastar FSX).
The dose-response curves for Examples 3u208, 3u246, 3u118, 3u119, 3u120, and 3u74 are shown in FIG. 1 (where percent degradation is plotted vs. test compound concentration in M on a log-scale).

Row | Emax [%] | Compound
1 | < 20 | CNc1nc(=O)n(-c2ccnc3c2cc(CN2CCC(c4c(F)cc(C(=O)N5CCC(CN6CCN(c7cc8c(cc7F)n(C7CCC(=O)NC7=O)c(=O)n8C)CC6)CC5)cc4F)CC2)n3C)cc1F (stereo not shown) [Example 3u261, 3-(5-(4-((1-(3,5-difluoro-4-(1-((4-(5-fluoro-4-(methylamino)-2-oxopyrimidin-1 (2H)-yl)-1-methyl-1H-pyrrolo[2,3-b]pyridin-2-yl)methyl)piperidin-4-yl)benzoyl)piperidin-4-yl)methyl)piperazin-1-yl)-6-fluoro-3-methyl-2-oxo-2,3-dihydro-1H-benzo[d]imidazol-1-yl)piperidine-2,6-dione]
2 | 30 to 40 | CNc1cc(=O)n(-c2ccnc3c2cc(CN2CCC(c4c(F)cc(C(=O)N5CCC(OCC#Cc6ccc7c(c6)n(C)c(=O)n7C6CCC(=O)NC6=O)CC5)cc4F)CC2)n3C)cc1F (stereo not shown) [Example 3u262, 3-(5-(3-((1-(3,5-difluoro-4-(1-((4-(5-fluoro-4-(methylamino)-2-oxopyridin-1 (2H)-yl)-1-methyl-1H-pyrrolo[2,3-b]pyridin-2-yl)methyl)piperidin-4-yl)benzoyl)piperidin-4-yl)oxy)prop-1-yn-1-yl)-3-methyl-2-oxo-2,3-dihydro-1H-benzo[d]imidazol-1-yl)piperidine-2,6-dione]
3 | < 20 | CNc1ccn(-c2ccnc3c2cc(CN2CCC(c4c(F)cc(C(=O)N5CCC(CN6CCN(c7cc8c(cc7F)n(C7CCC(=O)NC7=O)c(=O)n8C)CC6)CC5)cc4F)CC2)n3C)c(=O)c1F (stereo not shown) [Example 3u274, 3-(5-(4-((1-(3,5-difluoro-4-(1-((4-(3-fluoro-4-(methylamino)-2-oxopyridin-1 (2H)-yl)-1-methyl-1H-pyrrolo[2,3-b]pyridin-2-yl)methyl)piperidin-4-yl)benzoyl)piperidin-4-yl)methyl)piperazin-1-yl)-6-fluoro-3-methyl-2-oxo-2,3-dihydro-1H-benzo[d]imidazol-1-yl)piperidine-2,6-dione]

Same assay, conditions: HeLa LgBiT clone 4.14 HiBiT-STAT6, 4-24 h incubation; values given for compounds with >80% Emax; geometric mean; read-out: STAT6 degradation DC50

Row | DC50 [nM] | Compound
4 | 0.5 | CNc1ccn(-c2ccnc3c2cc([C@H](C)N2CC=C(c4c(C)cc(C(=O)N5CCn6nc(CC7CCN(c8ccc9c(c8)n(C8CC8)c(=O)n9C8CCC(=O)NC8=O)CC7)cc6C5)cc4F)CC2)n3C)c(=O)c1 (stereo partly drawn) [Example 3u259, 3-(3-cyclopropyl-5-(4-((5-(3-fluoro-5-methyl-4-(1-((S)-1-(1-methyl-4-(4-(methylamino)-2-oxopyridin-1 (2H)-yl)-1H-pyrrolo[2,3-b]pyridin-2-yl)ethyl)-1,2,3,6-tetrahydropyridin-4-yl)benzoyl)-4,5,6,7-tetrahydropyrazolo[1,5-a]pyrazin-2-yl)methyl)piperidin-1-yl)-2-oxo-2,3-dihydro-1H-benzo[d]imidazol-1-yl)piperidine-2,6-dione]
5 | 0.3 | CNc1ccn(-c2ccnc3c2cc([C@H](C)N2CC=C(c4c(C)cc(C(=O)N5CCC(CN6CCN(Cc7ccc8c(c7)n(C)c(=O)n8[C@@H]7CCC(=O)NC7=O)C[C@@H]6C)CC5)cc4F)CC2)n3C)c(=O)c1 (single isomer, unassigned) [Example 3u34]
6 | 0.4 | Cc1cc(C(=O)N2CCC(CN3CCN(Cc4ccc5c(c4)n(C4CC4)c(=O)n5[C@@H]4CCC(=O)NC4=O)C[C@@H]3C)CC2)cc(F)c1C1=CCN([C@@H](C)c2cc3c(-n4ccc5c(c4=O)CCN5)ccnc3n2C)CC1 (single isomer, unassigned) [Example 3u144]
7 | 26 | CNc1ccn(-c2ccnc3c2cc(CN2CCC(c4c(F)cc(C(=O)N5CCC(CN6CCN(Cc7ccc8c(c7)C7(CC7)C(=O)N8C7CCC(=O)NC7=O)C[C@@H]6C)CC5)cc4F)CC2)n3C)c(=O)c1F (stereo partly drawn) [Example 3u84, 3-(5′-(((S)-4-((1-(3,5-difluoro-4-(1-((4-(3-fluoro-4-(methylamino)-2-oxopyridin-1 (2H)-yl)-1-methyl-1H-pyrrolo[2,3-b]pyridin-2-yl)methyl)piperidin-4-yl)benzoyl)piperidin-4-yl)methyl)-3-methylpiperazin-1-yl)methyl)-2′-oxospiro[cyclopropane-1,3′-indolin]-1′-yl)piperidine-2,6-dione]
8 | 0.1 | CNc1cc(=O)n(-c2ccnc3c2cc([C@H](C)N2CC=C(c4c(C)cc(C(=O)N(C)c5ccc(C6CCN(Cc7ccc8c(c7)C(C)(C)C(=O)N8[C@H]7CCC(=O)NC7=O)CC6)cc5)cc4F)CC2)n3C)cc1F (single isomer, unassigned) [Example 3u234]
9 | 2.5 | CNc1ccn(-c2ccnc3c2cc([C@H](C)N2CC=C(c4c(C)cc(C(=O)N5CCC(CN6CCN(Cc7cc8c(cc7F)n(C7CCC(=O)NC7=O)c(=O)n8C7CC7)CC6)CC5)cc4F)CC2)n3C)c(=O)c1 (stereo partly drawn) [Example 3u103, 3-(3-cyclopropyl-6-fluoro-5-((4-((1-(3-fluoro-5-methyl-4-(1-((S)-1-(1-methyl-4-(4-(methylamino)-2-oxopyridin-1 (2H)-yl)-1H-pyrrolo[2,3-b]pyridin-2-yl)ethyl)-1,2,3,6-tetrahydropyridin-4-yl)benzoyl)piperidin-4-yl)methyl)piperazin-1-yl)methyl)-2-oxo-2,3-dihydro-1H-benzo[d]imidazol-1-yl)piperidine-2,6-dione]
10 | 4.3 | CNc1cc(=O)n(-c2ccnc3c2cc([C@H](C)N2CC=C(c4c(C)cc(C(=O)N5CCC(CN6CCN(c7ccc8c(c7)n(C7CC7)c(=O)n8C7CCC(=O)NC7=O)CC6)CC5)cc4F)CC2)n3C)cc1F (stereo partly drawn) [Example 3u276, 3-(3-cyclopropyl-5-(4-((1-(3-fluoro-4-(1-((S)-1-(4-(5-fluoro-4-(methylamino)-2-oxopyridin-1 (2H)-yl)-1-methyl-1H-pyrrolo[2,3-b]pyridin-2-yl)ethyl)-1,2,3,6-tetrahydropyridin-4-yl)-5-methyl-benzoyl)piperidin-4-yl)methyl)piperazin-1-yl)-2-oxo-2,3-dihydro-1H-benzo[d]imidazol-1-yl)piperidine-2,6-dione]
11 | 1.3 | Cc1cc(C(=O)N2CCC(CN3CCN(Cc4ccc5c(c4)n(C)c(=O)n5C4CCC(=O)NC4=O)C[C@@H]3C)CC2)cc(F)c1C1=CCN(Cc2cc3c(-n4ccc5c(c4=O)CCN5)ccnc3n2C)CC1 (stereo partly drawn) [Example 3u23, 3-(5-(((S)-4-((1-(3-fluoro-5-methyl-4-(1-((1-methyl-4-(4-oxo-1,2,3,4-tetrahydro-5H-pyrrolo[3,2-c]pyridin-5-yl)-1H-pyrrolo[2,3-b]pyridin-2-yl)methyl)-1,2,3,6-tetrahydropyridin-4-yl)benzoyl)piperidin-4-yl)methyl)-3-methylpiperazin-1-yl)methyl)-3-methyl-2-oxo-2,3-dihydro-1H-benzo[d]imidazol-1-yl)piperidine-2,6-dione]
12 | 4.4 | CNc1ccn(-c2ccnc3c2cc(CN2CC=C(c4c(C)cc(C(=O)N5CCC(CN6CCN(Cc7ccc8c(c7)n(C)c(=O)n8C7CCC(=O)NC7=O)CC6)CC5)cc4F)CC2)n3C)c(=O)c1 (stereo not shown) [Example 3u163, 3-(5-((4-((1-(3-fluoro-5-methyl-4-(1-((1-methyl-4-(4-(methylamino)-2-oxopyridin-1 (2H)-yl)-1H-pyrrolo[2,3-b]pyridin-2-yl)methyl)-1,2,3,6-tetrahydropyridin-4-yl)benzoyl)piperidin-4-yl)methyl)piperazin-1-yl)methyl)-3-methyl-2-oxo-2,3-dihydro-1H-benzo[d]imidazol-1-yl)piperidine-2,6-dione]
13 | 1.8 | CNc1ccn(-c2ccnc3c2cc(CN2CC=C(c4c(F)cc(C(=O)N5CCC(CN6CCN(Cc7ccc8c(c7)n(C)c(=O)n8[C@@H]7CCC(=O)NC7=O)C[C@@H]6C)CC5)cc4F)CC2)n3C)c(=O)c1 (single isomer, unassigned) [Example 3u3]
